Results as given in PMC4963854, “Mapping Protein–Protein Interactions of the Resistance-Related Bacterial Zeta Toxin–Epsilon Antitoxin Complex (ε2ζ2) with High Affinity Peptide Ligands Using Fluorescence Polarization” (Toxins, 2016).
Like-named read-outs stand apart in the source and are kept apart here. Ends that are not written are not given here. Peptide text beside a SMILES is read from it. * marks the point of attachment. 5FAM = O=C1OC2(c3ccc(O)cc3Oc3cc(O)ccc32)c2ccc(C(=O)*)cc21

Columns and labels:
[1] = molecular target: T1, Epsilon protein (His6-Epsilon) (Streptococcus pyogenes, UniProt Q57231); assay: Fluorescence polarization (FP) direct binding assay of fluorescein-labeled peptides to Epsilon
T1 construct: His6 (N); made in house; host or cells: E. coli BL21 (DE3)
T1 sequence (Q57231 1-90): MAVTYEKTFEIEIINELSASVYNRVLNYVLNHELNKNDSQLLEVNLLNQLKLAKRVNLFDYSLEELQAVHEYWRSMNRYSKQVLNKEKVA
Method: Binding affinities of the fluorescein-labeled peptides Fluo-(I–III) with Epsilon protein were determined in a fluorescence polarization (FP) assay. For the purpose, 10 nM solutions of each fluorescein-labeled peptide containing different concentrations of Epsilon (from 5 nM to 7.5 µM) were irradiated with polarized light at the excitation wavelength of 470 nm and the polarization of the emitted light was recorded in mP at […] (see Section 4).
Figure 3 Dose-response curve for the binding of Fluo-(I–II) to the Epsilon protein. The fluorescent-labeled peptides Fluo-(I–II) at a concentration of 10 nM were treated with increasing concentrations of Epsilon (from 0.05 nM to 2.5 µM) in 10 mM HEPES assay buffer, pH 7.5, with 0.1% Tween-20. Values are plotted as the means ± standard deviation (n = 3) from three independent experiments.
For fluorescence polarization measurements, peptides were dissolved in DMSO at 10 mM and diluted in 10 mM HEPES (pH 7.5) containing 0.1% Tween-20. The assay was conducted on untreated black 384-well microtiter plates (low volume, non-binding surface, round bottom, non-sterile black polystyrene, Corning B.V. Life Sciences, Nr. 3676, Kennebunk, ME, USA) in a final volume of 10 µL, using 10 mM HEPES (pH 7.5) with 0.1% Tween-20 as a buffer. The final DMSO proportion in the assay was less than 0.1%. The measurements were performed on a SAFIRE II (Tecan) microplate reader, using an excitation wavelength of 470 nm and emission wavelength of 525 nm. The final assay mixtures contained 5 µL fluorescein-labeled peptide (furnishing a final assay concentration of 10 nM), and 5 µL of increasing amounts of Epsilon protein (final concentrations ranging from 0.05 nM to 5 µM). The negative controls comprised 5 µL fluorescein-labeled peptide (maintaining a final assay concentration of 10 nM) and 5 µL 10 mM HEPES buffer (pH 7.5) containing 0.1% Tween-20. To avoid protein aggregation, Tween-20 (0.1% final concentration) was used as a detergent in all experiments. After adding the fluorescent peptide, the plates were centrifuged (2000 min^−1, 3 min) and shaken briefly (2000 rpm for 10 min at room temperature), and polarization of the emitted fluorescence was directly recorded. In every case, the well containing only the fluorescein-labeled peptide was subtracted from the assay well as background. The polarization values (mP) were plotted as a function of the logarithm of the protein concentration. […] All of the experiments were carried out in duplicate in three independent experiments, and the results are expressed as the mean ± standard deviation (SD).

[2] = molecular target: T1, Epsilon protein (His6-Epsilon); assay: Competitive FP binding assay: acetylated peptides displace fluorescein-labeled peptide from Epsilon; conditions: unlabeled peptide 0.01-100 µM, 10 mM HEPES pH 7.5, 0.1% Tween-20, 384-well, duplicates in three independent experiments ± SD
Description: The fluorescent high-affinity peptide ligands could be the basis for an especially economic and reliable high-throughput assay, if the fluorescence polarization read-out can be used for the screening of potential ligands that are able to bind to Epsilon in a competitive binding assay. For this purpose, we utilized the unlabeled peptides Ac-Ia and Ac-IIb containing the same amino acid sequence as the initial peptides but with their N-terminus modified by the introduction of an acetyl group. The competitive binding assays were performed by using appropriate amounts of Epsilon protein based on the binding affinity, expressed in terms of the KD value, for the labeled peptides Fluo-Ia and Fluo-IIb. In both cases, the protein concentration was set to the KD value and 5-fold the KD value to study the influence of the protein concentration on the IC50-value of every acetylated peptide. Thus, the Epsilon protein (100 nM or 500 nM final concentration) was treated with Fluo-Ia or Fluo-IIb (10 nM final concentration). After incubation, each mixture was treated with different concentrations of the unlabeled peptides Ac-Ia and Ac-IIb, ranging from 0.01 to 100 µM. […] The ability to identify active compounds (hits) from a particular high-throughput screening (HTS) assay depends largely on the suitability or quality of the assay conditions used in the screening. […]
Figure 5 Competitive binding of the fluorescein-labeled peptides Fluo-Ia and Fluo-IIb to the Epsilon protein in 384-well plates. […] Fluorescence polarization was measured on a SAFIRE II (Tecan, Crailsheim, Germany) microplate reader, using an excitation wavelength of 470 nm and emission wavelength of 525 nm. […]
For the competitive binding assays, unlabeled peptides containing the same amino acid sequence as the previous one but with the N-terminal end modified by the introduction of acetyl group were used. […] The measurements were performed on a SAFIRE II microplate reader (Tecan), using an excitation wavelength of 470 nm and emission wavelength of 525 nm. […]

[3] = 10 nM fluorescein-labeled peptide titrated with Epsilon, 10 mM HEPES pH 7.5, 0.1% Tween-20, no NaCl, ex 470 nm/em 525 nm, EC50 taken as KD (Q close to 1), three independent experiments, n = 3 ± SD, SD, read-out: Binding constant KD

Compound | Kd [1, 3] [nM] | further results
CC(C)C[C@H](NC(=O)c1ccc2c(c1)C(=O)OC21c2ccc(O)cc2Oc2cc(O)ccc21)C(=O)N[C@@H](CCCNC(=N)N)C(=O)N[C@@H](CO)C(=O)N[C@@H](C)C(=O)N[C@@H](CCC(=O)O)C(=O)N[C@@H](Cc1ccccc1)C(=O)N[C@@H](CCC(=O)O)C(=O)N[C@@H](CCC(=O)O)C(=O)N[C@H](C(=O)N[C@@H](CCC(N)=O)C(=O)O)[C@@H](C)O [Fluo-IIa] (5FAM-LRSAEFEETQ-OH) | 169 ± 16 | 
CC[C@H](C)[C@H](NC(=O)[C@H](CC(C)C)NC(=O)[C@H](CCC(=O)O)NC(=O)[C@H](CCC(=O)O)NC(=O)[C@H](Cc1c[nH]cn1)NC(=O)[C@H](CC(N)=O)NC(=O)[C@H](CC(=O)O)NC(=O)[C@H](CC(N)=O)NC(=O)[C@H](CC(C)C)NC(=O)c1ccc2c(c1)C(=O)OC21c2ccc(O)cc2Oc2cc(O)ccc21)C(=O)N[C@@H](CCC(N)=O)C(=O)O [Fluo-Ia] (5FAM-LNDNHEELIQ-OH) | 74.5 ± 10.5 | Kd ([1]; 10 nM Fluo-Ia, 10 mM HEPES pH 7.5, 0.1% Tween-20, plus 10 mM NaCl, read-out: Binding constant in presence of 10 mM NaCl): 105 nM
Ac-GDTSLRSAEFEETQ [Ac-IIb] |  | IC50 ([2]; 500 nM Epsilon, 10 nM Fluo-IIb, read-out: IC50, competition with Fluo-IIb, 500 nM Epsilon): 15300 ± 2500 nM
CC[C@H](C)[C@H](NC(=O)[C@H](CC(C)C)NC(=O)[C@H](CCC(=O)O)NC(=O)[C@H](CCC(=O)O)NC(=O)[C@H](Cc1c[nH]cn1)NC(=O)[C@H](CC(N)=O)NC(=O)[C@H](CC(C)C)NC(=O)[C@H](CC(N)=O)NC(=O)[C@H](CC(=O)O)NC(=O)c1ccc2c(c1)C(=O)OC21c2ccc(O)cc2Oc2cc(O)ccc21)C(=O)N[C@@H](CCC(N)=O)C(=O)O [Fluo-Ie] (5FAM-DNLNHEELIQ-OH; C-terminus assumed) | 175 ± 8.9 | ΔmP (dynamic range of polarization) ([1]; 10 nM fluorescein-labeled peptide titrated with Epsilon, 10 mM HEPES pH 7.5, 0.1% Tween-20): 115
Ac-LNDNHEELIQ [Ac-Ia] |  | IC50 ([2]; 100 nM Epsilon, 10 nM Fluo-Ia, read-out: IC50, competition with Fluo-Ia, 100 nM Epsilon): 18600 ± 4640 nM; IC50 ([2]; 500 nM Epsilon, 10 nM Fluo-Ia, read-out: IC50, competition with Fluo-Ia, 500 nM Epsilon): 51800 ± 7400 nM
CC(C)C[C@H](NC(=O)[C@H](CO)NC(=O)[C@@H](NC(=O)[C@H](CC(=O)O)NC(=O)CNC(=O)c1ccc2c(c1)C(=O)OC21c2ccc(O)cc2Oc2cc(O)ccc21)[C@@H](C)O)C(=O)N[C@@H](CCCNC(=N)N)C(=O)N[C@@H](CO)C(=O)N[C@@H](C)C(=O)N[C@@H](CCC(=O)O)C(=O)N[C@@H](Cc1ccccc1)C(=O)N[C@@H](CCC(=O)O)C(=O)N[C@@H](CCC(=O)O)C(=O)N[C@H](C(=O)N[C@@H](CCC(N)=O)C(=O)O)[C@@H](C)O [Fluo-IIb] (5FAM-GDTSLRSAEFEETQ-OH) | 99.5 ± 12.2 | 
CC[C@H](C)[C@H](NC(=O)[C@H](CC(C)C)NC(=O)[C@H](CCC(=O)O)NC(=O)[C@H](CCC(=O)O)NC(=O)[C@H](Cc1c[nH]cn1)NC(=O)[C@H](CC(N)=O)NC(=O)[C@H](CC(=O)O)NC(=O)[C@H](CC(N)=O)NC(=O)[C@H](CC(C)C)NC(=O)[C@H](CCCNC(=N)N)NC(=O)[C@H](CC(N)=O)NC(=O)[C@H](CCC(=O)O)NC(=O)[C@H](Cc1ccccc1)NC(=O)c1ccc2c(c1)C(=O)OC21c2ccc(O)cc2Oc2cc(O)ccc21)C(=O)N[C@@H](CCC(N)=O)C(=O)O [Fluo-Ib] (5FAM-FENRLNDNHEELIQ-OH) | 89.5 ± 13.9 | 
CC(C)C[C@H](NC(=O)[C@H](CO)NC(=O)[C@@H](NC(=O)[C@H](CC(=O)O)NC(=O)CNC(=O)[C@H](CO)NC(=O)CNC(=O)c1ccc2c(c1)C(=O)OC21c2ccc(O)cc2Oc2cc(O)ccc21)[C@@H](C)O)C(=O)N[C@@H](CCCNC(=N)N)C(=O)N[C@@H](CO)C(=O)N[C@@H](C)C(=O)N[C@@H](CCC(=O)O)C(=O)N[C@@H](Cc1ccccc1)C(=O)N[C@@H](CCC(=O)O)C(=O)N[C@@H](CCC(=O)O)C(=O)N[C@H](C(=O)N[C@@H](CCC(N)=O)C(=O)O)[C@@H](C)O [Fluo-IIc] (5FAM-GSGDTSLRSAEFEETQ-OH) | 134 ± 15 | 
